Measured values taken from ChEMBL document CHEMBL4270552, “4-(Phenoxy) and 4-(benzyloxy)benzamides as potent and selective inhibitors of mono-ADP-ribosyltransferase PARP10/ARTD10” (Eur J Med Chem, 2018).

Molecular target: T1, Protein mono-ADP-ribosyltransferase PARP10 (Homo sapiens, UniProt Q53GL7)
T1 sequence (Q53GL7 whole entry): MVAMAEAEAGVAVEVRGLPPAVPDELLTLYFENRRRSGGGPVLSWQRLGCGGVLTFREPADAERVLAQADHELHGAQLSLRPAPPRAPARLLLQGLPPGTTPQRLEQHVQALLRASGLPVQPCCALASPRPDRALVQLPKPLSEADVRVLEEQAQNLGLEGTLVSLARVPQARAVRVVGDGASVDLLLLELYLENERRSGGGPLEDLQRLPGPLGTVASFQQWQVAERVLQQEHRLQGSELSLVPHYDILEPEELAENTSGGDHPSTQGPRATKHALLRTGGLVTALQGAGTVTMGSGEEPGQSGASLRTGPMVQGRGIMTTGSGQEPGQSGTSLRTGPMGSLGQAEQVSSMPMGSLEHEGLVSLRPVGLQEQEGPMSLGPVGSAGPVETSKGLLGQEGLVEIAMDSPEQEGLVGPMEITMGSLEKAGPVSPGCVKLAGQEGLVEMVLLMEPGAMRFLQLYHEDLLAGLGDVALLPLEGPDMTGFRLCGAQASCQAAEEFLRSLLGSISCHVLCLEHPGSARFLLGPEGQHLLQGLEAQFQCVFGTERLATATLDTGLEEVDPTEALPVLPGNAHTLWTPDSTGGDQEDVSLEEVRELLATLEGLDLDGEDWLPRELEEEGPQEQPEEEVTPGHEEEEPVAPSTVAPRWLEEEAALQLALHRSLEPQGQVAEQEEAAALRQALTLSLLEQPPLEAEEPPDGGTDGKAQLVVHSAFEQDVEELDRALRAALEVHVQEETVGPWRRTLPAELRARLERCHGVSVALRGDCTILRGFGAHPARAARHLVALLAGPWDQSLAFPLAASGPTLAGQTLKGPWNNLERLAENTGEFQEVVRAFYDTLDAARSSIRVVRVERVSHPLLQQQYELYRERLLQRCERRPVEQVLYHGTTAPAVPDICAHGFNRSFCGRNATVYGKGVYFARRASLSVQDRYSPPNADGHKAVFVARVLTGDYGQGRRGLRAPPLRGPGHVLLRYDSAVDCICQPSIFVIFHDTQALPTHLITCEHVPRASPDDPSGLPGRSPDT
Assay: Inhibition of C-terminal His-tagged human ARTD10 (809 to 1017 residues) expressed in Escherichia coli Rosetta2 (DE3) using SRPK2 as substrate after 13 hrs in presence of NAD+
Details: read-out: IC50

Row | Compound | IC50
1 | CCOc1ccc(C(N)=O)cc1 | 3.5 µM
2 | NC(=O)c1ccc(COc2ccc(C(N)=O)cc2)cc1 | 2 µM
3 | COc1ccc(Oc2ccc(C(N)=O)cc2)cc1 | 1.4 µM
4 | CC(C)Oc1ccc(C(N)=O)cc1 | 1.3 µM
5 | NC(=O)c1ccc(OC(=O)c2ccccc2)cc1 | 7.3 µM
6 | NC(=O)c1ccc(OCc2cccc3ccccc23)cc1 | 1.4 µM
7 | NC(=O)c1ccc(Oc2ccc(N)cc2)cc1 | 1.3 µM
8 | NC(=O)c1ccc(Oc2ccc(O)cc2)cc1 | 1.8 µM
9 | Cc1ccc(COc2ccc(C(N)=O)cc2)cc1 | 9.3 µM
10 | NC(=O)c1ccc(OCc2ccccc2)cc1 | 1.4 µM
11 | NC(=O)c1ccc(OCc2ccccc2Br)cc1 | 3.8 µM
12 | NC(=O)c1ccc(OCc2cccc(F)c2)cc1 | 3.3 µM
13 | NC(=O)c1ccc(OCc2ccccn2)cc1 | 1.35 µM
14 | NC(=O)c1ccc(OCc2ccc(F)cc2)cc1 | 7.9 µM
15 | Cc1cc(C)cc(COc2ccc(C(N)=O)cc2)c1 | 4.5 µM
16 | NC(=O)c1ccc(OCCOc2ccccc2)cc1 | 1.9 µM
17 | NC(=O)c1ccc(Oc2ccccc2F)cc1 | 1.7 µM
18 | NC(=O)c1ccc(OC2CCC2)cc1 | 0.72 µM
19 | NC(=O)c1ccc(Oc2ccccc2)cc1 | 1.1 µM

Same assay, conditions: read-out: pIC50 (converted)

Row | Compound | IC50
20 | CCOc1ccc(C(N)=O)cc1 | 3.39 µM
21 | COc1ccc(Oc2ccc(C(N)=O)cc2)cc1 | 1.38 µM
22 | CC(C)Oc1ccc(C(N)=O)cc1 | 1.26 µM
23 | NC(=O)c1ccc(OC(=O)c2ccccc2)cc1 | 7.24 µM
24 | NC(=O)c1ccc(OCc2cccc3ccccc23)cc1 | 1.45 µM
25 | NC(=O)c1ccc(Oc2ccc(N)cc2)cc1 | 1.26 µM
26 | NC(=O)c1ccc(Oc2ccc(O)cc2)cc1 | 1.74 µM
27 | Cc1ccc(COc2ccc(C(N)=O)cc2)cc1 | 9.33 µM
28 | NC(=O)c1ccc(OCc2ccccc2)cc1 | 1.35 µM
29 | NC(=O)c1ccc(OCc2ccccc2Br)cc1 | 3.8 µM
30 | NC(=O)c1ccc(OCc2cccc(F)c2)cc1 | 3.31 µM
31 | NC(=O)c1ccc(OCc2ccccn2)cc1 | 1.35 µM
32 | NC(=O)c1ccc(OCc2ccc(F)cc2)cc1 | 7.94 µM
33 | Cc1cc(C)cc(COc2ccc(C(N)=O)cc2)c1 | 4.57 µM
34 | NC(=O)c1ccc(OCCOc2ccccc2)cc1 | 1.95 µM
35 | NC(=O)c1ccc(Oc2ccccc2F)cc1 | 1.7 µM
36 | NC(=O)c1ccc(OC2CCC2)cc1 | 0.724 µM
37 | NC(=O)c1ccc(Oc2ccccc2)cc1 | 1.15 µM

Molecular target: Protein mono-ADP-ribosyltransferase PARP4 (Homo sapiens, UniProt Q9UKK3)
Sequence (Q9UKK3 whole entry, the tested form may be a part): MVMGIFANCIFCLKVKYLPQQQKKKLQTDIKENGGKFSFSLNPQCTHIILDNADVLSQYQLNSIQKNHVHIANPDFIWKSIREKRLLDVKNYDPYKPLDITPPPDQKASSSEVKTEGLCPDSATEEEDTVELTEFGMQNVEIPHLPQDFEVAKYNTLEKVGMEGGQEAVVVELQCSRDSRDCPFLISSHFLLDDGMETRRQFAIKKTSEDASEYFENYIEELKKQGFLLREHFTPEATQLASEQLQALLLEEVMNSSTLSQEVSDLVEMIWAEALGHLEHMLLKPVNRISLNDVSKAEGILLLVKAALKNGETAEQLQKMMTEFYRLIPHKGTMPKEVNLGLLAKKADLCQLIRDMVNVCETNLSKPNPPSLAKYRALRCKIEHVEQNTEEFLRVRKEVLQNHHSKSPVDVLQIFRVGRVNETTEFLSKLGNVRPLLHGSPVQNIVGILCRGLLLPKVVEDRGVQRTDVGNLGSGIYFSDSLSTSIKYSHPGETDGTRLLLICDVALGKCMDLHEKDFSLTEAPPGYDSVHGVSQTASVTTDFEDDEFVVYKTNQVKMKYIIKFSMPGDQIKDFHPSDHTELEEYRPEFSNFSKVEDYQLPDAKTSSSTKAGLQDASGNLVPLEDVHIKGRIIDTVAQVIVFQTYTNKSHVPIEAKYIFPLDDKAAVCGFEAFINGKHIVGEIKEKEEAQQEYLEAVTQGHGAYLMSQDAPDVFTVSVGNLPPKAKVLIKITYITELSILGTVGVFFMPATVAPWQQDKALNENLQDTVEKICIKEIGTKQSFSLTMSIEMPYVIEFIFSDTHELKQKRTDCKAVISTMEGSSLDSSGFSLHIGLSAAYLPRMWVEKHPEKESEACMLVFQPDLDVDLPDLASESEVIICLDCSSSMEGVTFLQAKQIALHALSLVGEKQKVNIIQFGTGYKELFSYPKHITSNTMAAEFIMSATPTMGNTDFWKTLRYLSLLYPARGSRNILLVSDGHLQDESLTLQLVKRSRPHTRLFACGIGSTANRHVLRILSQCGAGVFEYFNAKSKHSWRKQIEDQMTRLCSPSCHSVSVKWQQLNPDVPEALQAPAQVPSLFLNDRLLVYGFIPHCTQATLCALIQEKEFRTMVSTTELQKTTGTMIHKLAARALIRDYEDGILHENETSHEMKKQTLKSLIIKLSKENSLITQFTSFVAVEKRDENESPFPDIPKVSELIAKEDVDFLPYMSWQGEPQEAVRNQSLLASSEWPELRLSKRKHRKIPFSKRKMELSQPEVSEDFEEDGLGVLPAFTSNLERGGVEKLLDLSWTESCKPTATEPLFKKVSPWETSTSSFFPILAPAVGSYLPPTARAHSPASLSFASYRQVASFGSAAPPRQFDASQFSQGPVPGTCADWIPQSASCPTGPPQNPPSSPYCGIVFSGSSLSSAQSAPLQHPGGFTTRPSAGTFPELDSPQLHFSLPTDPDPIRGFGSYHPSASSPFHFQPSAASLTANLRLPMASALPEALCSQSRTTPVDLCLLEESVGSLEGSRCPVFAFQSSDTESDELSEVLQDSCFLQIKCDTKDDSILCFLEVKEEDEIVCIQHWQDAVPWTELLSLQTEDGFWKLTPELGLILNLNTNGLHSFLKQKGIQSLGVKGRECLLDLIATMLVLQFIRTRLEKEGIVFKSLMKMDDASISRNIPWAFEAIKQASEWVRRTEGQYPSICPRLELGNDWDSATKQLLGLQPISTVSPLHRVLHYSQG
Assay: Inhibition of N-terminal His-tagged human ARTD4 (250 to 565 residues) expressed in Escherichia coli Rosetta2 (DE3) using TCEP as substrate after 2.5 hrs in presence of NAD+
Details: not given

Row | Compound | IC50
38 | NC(=O)c1ccc(Oc2ccc(C(N)=O)cc2)cc1 | 23 µM

Molecular target: T2, Protein mono-ADP-ribosyltransferase PARP10 (Homo sapiens) (UniProt Q53GL7)
T2 sequence (whole entry): T1 sequence (Q53GL7 whole entry)
Details: not given

Row | Compound | ΔTm
39 | NC(=O)c1ccc(Oc2ccc(C(N)=O)cc2)cc1 | 3.8 °C

Molecular target: Protein mono-ADP-ribosyltransferase PARP9 (Homo sapiens) (UniProt Q8IXQ6)
Details: not given

Row | Compound | ΔTm
40 | NC(=O)c1ccc(Oc2ccc(C(N)=O)cc2)cc1 | 0.72 °C

Molecular target: Zinc finger CCCH-type antiviral protein 1 (Homo sapiens) (UniProt Q7Z2W4)
Sequence (Q7Z2W4 whole entry): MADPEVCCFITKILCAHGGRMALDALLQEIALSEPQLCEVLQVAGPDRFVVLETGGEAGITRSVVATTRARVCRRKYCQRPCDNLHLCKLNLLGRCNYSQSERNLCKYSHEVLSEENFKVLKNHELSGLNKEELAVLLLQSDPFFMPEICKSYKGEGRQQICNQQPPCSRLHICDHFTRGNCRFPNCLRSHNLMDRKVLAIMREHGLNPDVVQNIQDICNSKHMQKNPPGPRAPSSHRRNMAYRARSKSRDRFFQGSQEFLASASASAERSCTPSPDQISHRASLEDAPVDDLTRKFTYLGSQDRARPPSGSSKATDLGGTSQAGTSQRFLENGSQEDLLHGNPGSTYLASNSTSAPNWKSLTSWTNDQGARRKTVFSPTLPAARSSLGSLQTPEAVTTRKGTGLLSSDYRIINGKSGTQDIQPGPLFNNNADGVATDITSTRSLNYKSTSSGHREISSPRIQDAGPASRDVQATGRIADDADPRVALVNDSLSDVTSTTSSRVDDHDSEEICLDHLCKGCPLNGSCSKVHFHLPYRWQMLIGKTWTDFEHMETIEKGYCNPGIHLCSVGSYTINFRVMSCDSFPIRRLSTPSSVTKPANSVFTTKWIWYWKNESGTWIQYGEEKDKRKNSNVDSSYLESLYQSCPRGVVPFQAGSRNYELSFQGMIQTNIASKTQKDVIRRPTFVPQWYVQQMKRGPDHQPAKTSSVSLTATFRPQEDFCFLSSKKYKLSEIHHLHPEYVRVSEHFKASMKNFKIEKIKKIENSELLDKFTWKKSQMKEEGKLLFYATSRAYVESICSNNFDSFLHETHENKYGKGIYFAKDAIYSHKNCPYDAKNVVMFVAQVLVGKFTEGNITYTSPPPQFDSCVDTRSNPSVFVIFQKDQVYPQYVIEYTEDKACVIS
Details: not given

Row | Compound | ΔTm
41 | NC(=O)c1ccc(Oc2ccc(C(N)=O)cc2)cc1 | 0.4 °C

Molecular target: T3, Protein mono-ADP-ribosyltransferase PARP12 (Homo sapiens, UniProt Q9H0J9)
T3 sequence (Q9H0J9 whole entry): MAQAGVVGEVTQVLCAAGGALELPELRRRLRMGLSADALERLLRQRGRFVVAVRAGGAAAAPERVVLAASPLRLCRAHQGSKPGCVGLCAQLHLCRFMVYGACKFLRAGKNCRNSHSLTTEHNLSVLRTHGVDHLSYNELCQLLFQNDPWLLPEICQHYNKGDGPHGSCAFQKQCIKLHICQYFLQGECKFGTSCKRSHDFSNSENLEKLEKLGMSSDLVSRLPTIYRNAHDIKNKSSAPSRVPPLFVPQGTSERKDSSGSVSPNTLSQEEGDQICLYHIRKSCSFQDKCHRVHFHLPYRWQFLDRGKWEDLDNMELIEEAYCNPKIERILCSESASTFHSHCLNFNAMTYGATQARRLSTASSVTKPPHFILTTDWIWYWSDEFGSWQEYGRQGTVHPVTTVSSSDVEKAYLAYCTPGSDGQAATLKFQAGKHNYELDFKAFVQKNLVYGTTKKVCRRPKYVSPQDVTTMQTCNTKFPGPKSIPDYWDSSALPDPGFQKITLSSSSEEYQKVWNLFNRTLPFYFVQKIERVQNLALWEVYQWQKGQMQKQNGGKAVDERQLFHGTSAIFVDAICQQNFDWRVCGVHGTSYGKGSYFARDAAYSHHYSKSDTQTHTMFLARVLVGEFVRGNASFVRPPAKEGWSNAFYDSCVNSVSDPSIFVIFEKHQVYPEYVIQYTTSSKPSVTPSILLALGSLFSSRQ
Assay: Inhibition of N-terminal His-tagged thioredoxin-fused human ARTD12 (469 to 701 residues) expressed in Escherichia coli Rosetta2 (DE3) after 20 hrs in presence of NAD+
Details: not given

Row | Compound | IC50
42 | NC(=O)c1ccc(Oc2ccc(C(N)=O)cc2)cc1 | > 10 µM
